In ChEMBL document CHEMBL1201862, “PubChem BioAssay data set” (2004):
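Each compound was tested at five concentrations against cells in 96-well plates for 48 hours. GI50: concentration for 50% inhibition of growth.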 The source made the active and inactive calls. No stated cut-off is given here; in the data, active = GI50 up to about 1.1 µM and inactive = higher.

Legend:
Assay in all cases: inhibition of tumour cell growth, NCI panel, 48 h
NCI-H226 = tested on: NCI-H226
HL-60 = tested on: HL-60
SF-295 = tested on: SF-295
RPMI-8226 = tested on: RPMI-8226
HT-29 = tested on: HT-29
OVCAR-3 = tested on: OVCAR-3
IGROV-1 = tested on: IGROV-1
CAKI-1 = tested on: CAKI-1
HOP-62 = tested on: HOP-62
CCRF-CEM = tested on: CCRF-CEM
SN12C = tested on: SN12C
UACC-62 = tested on: UACC-62
PC-3 = tested on: PC-3
M14 = tested on: M14
LOX IMVI = tested on: LOX IMVI
SK-OV-3 = tested on: SK-OV-3
OVCAR-8 = tested on: OVCAR-8
Hs-578T = tested on: Hs-578T
SNB-75 = tested on: SNB-75
KM12 = tested on: KM12
NCI-H23 = tested on: NCI-H23
SR = tested on: SR
OVCAR-5 = tested on: OVCAR-5
HCC 2998 = tested on: HCC 2998
RXF 393 = tested on: RXF 393
SK-MEL-5 = tested on: SK-MEL-5
UACC-257 = tested on: UACC-257
DU-145 = tested on: DU-145
MCF7 = tested on: MCF7
MDA-N = tested on: MDA-N
786-0 = tested on: 786-0
NCI-H460 = tested on: NCI-H460
HCT-116 = tested on: HCT-116
SF-268 = tested on: SF-268
TK-10 = tested on: TK-10
SF-539 = tested on: SF-539
MDA-MB-231 = tested on: MDA-MB-231
SNB-19 = tested on: SNB-19
SK-MEL-2 = tested on: SK-MEL-2
HOP-92 = tested on: HOP-92
ACHN = tested on: ACHN
OVCAR-4 = tested on: OVCAR-4
U-251 = tested on: U-251
NCI-H522 = tested on: NCI-H522
T47D = tested on: T47D
K562 = tested on: K562
A549 = tested on: A549
MDA-MB-435 = tested on: MDA-MB-435
COLO 205 = tested on: COLO 205
BT-549 = tested on: BT-549
SW-620 = tested on: SW-620
NCI/ADR-RES = tested on: NCI/ADR-RES
MOLT-4 = tested on: MOLT-4
HCT-15 = tested on: HCT-15
A498 = tested on: A498
UO-31 = tested on: UO-31
SK-MEL-28 = tested on: SK-MEL-28
EKVX = tested on: EKVX
Malme-3M = tested on: Malme-3M

With `CN(N=O)C(=O)Nc1ccc(C(=O)O)cc1` the GI50 (NCI-H226) was > 100 µM (inactive), the GI50 (HL-60) was > 100 µM (inactive) and the GI50 (SF-295) was > 100 µM (inactive). For the same compound, the GI50 (RPMI-8226) was > 100 µM (inactive), the GI50 (HT-29) was > 100 µM (inactive) and the GI50 (OVCAR-3) was > 100 µM (inactive). The GI50 (IGROV-1) was > 100 µM (inactive), the GI50 (CAKI-1) was > 100 µM (inactive) and the GI50 (HOP-62) was > 100 µM (inactive). The GI50 (CCRF-CEM) was > 100 µM (inactive), the GI50 (SN12C) was > 100 µM (inactive) and the GI50 (UACC-62) was > 100 µM (inactive). The GI50 (PC-3) was > 100 µM (inactive), the GI50 (M14) was > 100 µM (inactive) and the GI50 (LOX IMVI) was > 100 µM (inactive). For the same compound, the GI50 (SK-OV-3) was > 100 µM (inactive), the GI50 (OVCAR-8) was > 100 µM (inactive) and the GI50 (Hs-578T) was > 100 µM (inactive). For the same compound, the GI50 (SNB-75) was > 100 µM (inactive), the GI50 (KM12) was > 100 µM (inactive) and the GI50 (NCI-H23) was > 100 µM (inactive). For the same compound, the GI50 (SR) was > 100 µM (inactive), the GI50 (OVCAR-5) was > 100 µM (inactive) and the GI50 (HCC 2998) was > 100 µM (inactive). The GI50 (RXF 393) was > 100 µM (inactive), the GI50 (SK-MEL-5) was > 100 µM (inactive) and the GI50 (UACC-257) was > 100 µM (inactive). For the same compound, the GI50 (DU-145) was > 100 µM (inactive), the GI50 (MCF7) was > 100 µM (inactive) and the GI50 (MDA-N) was > 100 µM (inactive). For the same compound, the GI50 (786-0) was > 100 µM (inactive), the GI50 (NCI-H460) was > 100 µM (inactive) and the GI50 (HCT-116) was > 100 µM (inactive). The GI50 (SF-268) was > 100 µM (inactive), the GI50 (TK-10) was > 100 µM (inactive) and the GI50 (SF-539) was > 100 µM (inactive). For the same compound, the GI50 (MDA-MB-231) was > 100 µM (inactive), the GI50 (SNB-19) was > 100 µM (inactive) and the GI50 (SK-MEL-2) was > 100 µM (inactive). For the same compound, the GI50 (HOP-92) was > 100 µM (inactive), the GI50 (ACHN) was > 100 µM (inactive) and the GI50 (OVCAR-4) was > 100 µM (inactive). The GI50 (U-251) was > 100 µM (inactive), the GI50 (NCI-H522) was > 100 µM (inactive) and the GI50 (T47D) was > 100 µM (inactive). The GI50 (K562) was > 100 µM (inactive), the GI50 (A549) was > 100 µM (inactive) and the GI50 (MDA-MB-435) was > 100 µM (inactive). The GI50 (COLO 205) was > 100 µM (inactive), the GI50 (BT-549) was > 100 µM (inactive) and the GI50 (SW-620) was > 100 µM (inactive). For the same compound, the GI50 (NCI/ADR-RES) was > 100 µM (inactive), the GI50 (MOLT-4) was > 100 µM (inactive) and the GI50 (HCT-15) was over 100 µM. The GI50 (A498) was > 100 µM (inactive), the GI50 (UO-31) was > 100 µM (inactive) and the GI50 (SK-MEL-28) was > 100 µM (inactive). The GI50 (EKVX) was > 100 µM (inactive).

In the case of `CC(=O)N(C(=O)CC(=O)N/N=C\c1ccc(Br)c(N(CCC#N)CCC#N)c1)c1ccc(Cl)cc1`, the GI50 (NCI-H226) is reported as 36.1 µM (inactive), the GI50 (HL-60) is reported as 35.4 µM (inactive) and the GI50 (SF-295) is reported as 22.7 µM (inactive). The GI50 (RPMI-8226) was 81.8 µM (inactive), the GI50 (OVCAR-3) was 47.9 µM (inactive) and the GI50 (IGROV-1) was 21.4 µM (inactive). The GI50 (CAKI-1) was 44.7 µM (inactive), the GI50 (HOP-62) was 44.7 µM (inactive) and the GI50 (CCRF-CEM) was > 100 µM (inactive). For the same compound, the GI50 (SN12C) was 7 µM (inactive), the GI50 (UACC-62) was 7.55 µM (inactive) and the GI50 (PC-3) was 96.6 µM (inactive). For the same compound, the GI50 (M14) was 34.5 µM (inactive), the GI50 (LOX IMVI) was 33.9 µM (inactive) and the GI50 (SK-OV-3) was 49.7 µM (inactive). The GI50 (OVCAR-8) was 54.5 µM (inactive), the GI50 (Hs-578T) was 52.5 µM (inactive) and the GI50 (SNB-75) was 54.2 µM (inactive). For the same compound, the GI50 (KM12) was 14.1 µM (inactive), the GI50 (NCI-H23) was 86.1 µM (inactive) and the GI50 (SR) was 44.2 µM (inactive). The GI50 (OVCAR-5) was 11.8 µM (inactive), the GI50 (HCC 2998) was 31 µM (inactive) and the GI50 (Malme-3M) was 51.6 µM (inactive). The GI50 (RXF 393) was > 100 µM (inactive), the GI50 (DU-145) was 30.2 µM (inactive) and the GI50 (MCF7) was 52.7 µM (inactive). For the same compound, the GI50 (MDA-N) was 41.3 µM (inactive), the GI50 (786-0) was 45.9 µM (inactive) and the GI50 (NCI-H460) was 74.5 µM (inactive). The GI50 (HCT-116) was 62.4 µM (inactive), the GI50 (SF-268) was > 100 µM (inactive) and the GI50 (TK-10) was 27.8 µM (inactive). For the same compound, the GI50 (SF-539) was 71.4 µM (inactive), the GI50 (MDA-MB-231) was 10.6 µM (inactive) and the GI50 (SNB-19) was 25.9 µM (inactive). For the same compound, the GI50 (HOP-92) was 30.2 µM (inactive), the GI50 (ACHN) was 14.5 µM (inactive) and the GI50 (U-251) was 46.3 µM (inactive). The GI50 (T47D) was 43.3 µM (inactive), the GI50 (K562) was 60 µM (inactive) and the GI50 (A549) was 27.4 µM (inactive). The GI50 (MDA-MB-435) was 27.5 µM (inactive), the GI50 (COLO 205) was 69.8 µM (inactive) and the GI50 (BT-549) was 58.9 µM (inactive). The GI50 (SW-620) was 93.3 µM (inactive), the GI50 (NCI/ADR-RES) was 52.8 µM (inactive) and the GI50 (MOLT-4) was 42.6 µM (inactive). For the same compound, the GI50 (HCT-15) was 14 µM, the GI50 (A498) was 33.4 µM (inactive) and the GI50 (UO-31) was 24.8 µM (inactive). The GI50 (SK-MEL-28) was > 100 µM (inactive) and the GI50 (EKVX) was 60.5 µM (inactive).

In the case of `CC(=O)Nc1cc2cc(NS(=O)(=O)c3cc(C(F)(F)F)cc(C(F)(F)F)c3)ccc2oc1=O`, the GI50 (NCI-H226) is reported as > 100 µM (inactive), the GI50 (HL-60) is reported as > 100 µM (inactive) and the GI50 (SF-295) is reported as > 100 µM (inactive). The GI50 (RPMI-8226) was > 100 µM (inactive), the GI50 (HT-29) was > 100 µM (inactive) and the GI50 (OVCAR-3) was 52.1 µM (inactive). For the same compound, the GI50 (IGROV-1) was > 100 µM (inactive), the GI50 (CAKI-1) was > 100 µM (inactive) and the GI50 (HOP-62) was > 100 µM (inactive). The GI50 (CCRF-CEM) was > 100 µM (inactive), the GI50 (SN12C) was > 100 µM (inactive) and the GI50 (UACC-62) was > 100 µM (inactive). The GI50 (PC-3) was > 100 µM (inactive), the GI50 (M14) was > 100 µM (inactive) and the GI50 (LOX IMVI) was 98.6 µM (inactive). For the same compound, the GI50 (OVCAR-8) was 34.3 µM (inactive), the GI50 (Hs-578T) was > 100 µM (inactive) and the GI50 (KM12) was > 100 µM (inactive). The GI50 (NCI-H23) was > 100 µM (inactive), the GI50 (SR) was > 100 µM (inactive) and the GI50 (OVCAR-5) was > 100 µM (inactive). The GI50 (HCC 2998) was > 100 µM (inactive), the GI50 (Malme-3M) was > 100 µM (inactive) and the GI50 (RXF 393) was 0.016 µM (active). The GI50 (SK-MEL-5) was > 100 µM (inactive), the GI50 (UACC-257) was > 100 µM (inactive) and the GI50 (DU-145) was > 100 µM (inactive). For the same compound, the GI50 (MCF7) was > 100 µM (inactive), the GI50 (MDA-N) was > 100 µM (inactive) and the GI50 (786-0) was 72.3 µM (inactive). The GI50 (NCI-H460) was > 100 µM (inactive), the GI50 (HCT-116) was > 100 µM (inactive) and the GI50 (SF-268) was 32.6 µM (inactive). The GI50 (TK-10) was > 100 µM (inactive), the GI50 (SF-539) was 29.4 µM (inactive) and the GI50 (MDA-MB-231) was > 100 µM (inactive). The GI50 (SNB-19) was 47.2 µM (inactive), the GI50 (SK-MEL-2) was > 100 µM (inactive) and the GI50 (HOP-92) was > 100 µM (inactive). For the same compound, the GI50 (ACHN) was > 100 µM (inactive), the GI50 (OVCAR-4) was > 100 µM (inactive) and the GI50 (U-251) was 28.7 µM (inactive). The GI50 (NCI-H522) was > 100 µM (inactive), the GI50 (T47D) was > 100 µM (inactive) and the GI50 (K562) was > 100 µM (inactive). For the same compound, the GI50 (A549) was > 100 µM (inactive), the GI50 (MDA-MB-435) was > 100 µM (inactive) and the GI50 (COLO 205) was > 100 µM (inactive). For the same compound, the GI50 (BT-549) was > 100 µM (inactive), the GI50 (SW-620) was > 100 µM (inactive) and the GI50 (NCI/ADR-RES) was > 100 µM (inactive). The GI50 (MOLT-4) was > 100 µM (inactive), the GI50 (HCT-15) was over 100 µM and the GI50 (A498) was > 100 µM (inactive). For the same compound, the GI50 (UO-31) was > 100 µM (inactive), the GI50 (SK-MEL-28) was > 100 µM (inactive) and the GI50 (EKVX) was > 100 µM (inactive).
